76 molecules from ChEMBL document CHEMBL3507680, “University of Dundee, Gates Library screen for HepG2 cell viability” can be followed below.

The data set is described as follows: Human HepG2 cell viability assay in 384 well format. More on the design: dose 125 nL, time 70.5 hour; concentration not given beside the values. Type of data set: toxicity, cell-based. The following applies: HepG2 cells, read-out: Inhibition.

For the molecule `Cc1nn(CC(=O)O)c2nccc(-c3ccc(F)cc3)c12`, the cytotoxicity at 70.5 h was -8.88%.

Regarding `O=C(O)Cn1nc(C2CC2)c2c(-c3ccco3)ccnc21`, the cytotoxicity at 70.5 h turned out to be 30.2%.

Consider `Cc1nn(-c2ccccc2)c2c1c(C(F)F)cc(=O)n2CC(=O)O`, for which the cytotoxicity at 70.5 h was -9.31%.

For the molecule `O=C(O)c1cc(C2CC2)nc2c(Cl)cnn12`, the cytotoxicity at 70.5 h was -7.04%.

For `COC(=O)c1sc(C(F)(F)F)cc1OC`, the cytotoxicity at 70.5 h was -12.4%.

Regarding `COC(=O)c1c(Cl)c(C)nc2onc(C)c12`, the cytotoxicity at 70.5 h is -9.83%.

On to `CCN(Cc1nonc1C)C(=O)c1cnccn1`, for which the cytotoxicity at 70.5 h is -8.37%.

For `Cn1nnc(NCc2ccc(-c3ccc(Cl)cc3)o2)n1`, the cytotoxicity at 70.5 h was -4.59%.

Turning to `CCCn1nnc(NCc2ccc(-c3ccc(Br)cc3)o2)n1`, the cytotoxicity at 70.5 h was -11.9%.

`CCn1nnc(NCc2cc(Cl)cc(Cl)c2OC)n1`: the cytotoxicity at 70.5 h was 18.4%.

Regarding `CCn1nnc(NCc2cc(Br)cc(Br)c2OC)n1`, the cytotoxicity at 70.5 h is -18.9%.

Consider `CC(=O)Nc1ncc(S(=O)(=O)Nc2ccccc2F)s1`, for which the cytotoxicity at 70.5 h is -9.78%.

For `CC(=O)Nc1ncc(S(=O)(=O)Nc2ccc(C)cc2)s1`, the cytotoxicity at 70.5 h is -1.08%.

For the molecule `COC(=O)c1ccc(NS(=O)(=O)c2cnc(NC(C)=O)s2)cc1`, the cytotoxicity at 70.5 h is -12%.

For the molecule `Cc1cc(NCCCOC(C)C)c2nncn2n1`, the cytotoxicity at 70.5 h came out at 7.73%.

`Cc1nn(C)c(C)c1CN1CCNCC1`: the cytotoxicity at 70.5 h is -4.45%.

`Cc1ccc(NC(=O)Nc2c(O)oc3ccccc3c2=O)cc1`: the cytotoxicity at 70.5 h was 4.11%.

As for `CSc1cccc(NC(=O)Nc2c(O)oc3ccccc3c2=O)c1`, the cytotoxicity at 70.5 h is -11.5%.

Consider `Cc1c2ncn(CC(=O)N(C)C)c(=O)c2nn1C`, for which the cytotoxicity at 70.5 h is -8.37%.

Regarding `O=c1c2cc3c(cc2nnn1Cc1ccccc1Cl)OCCO3`, the cytotoxicity at 70.5 h was determined as 12.4%.

Regarding `Cc1nnsc1C(=O)NCCNS(=O)(=O)c1cccs1`, the cytotoxicity at 70.5 h worked out at 6.87%.

Regarding `O=C(c1ccc(Cn2cc(Br)cn2)cc1)N1CCCC1`, the cytotoxicity at 70.5 h was 30.7%.

`CCn1cc(CNC(=O)C(C)C)cn1`: the cytotoxicity at 70.5 h was determined as 0.0963%.

Turning to `Cc1c(Br)c(C(=O)NC(C)c2ccccc2)nn1C` (stereo unspecified), the cytotoxicity at 70.5 h is -13%.

As to `COCCCNC(=O)C(C)n1cc(Br)cn1` (stereo unspecified), the cytotoxicity at 70.5 h turned out to be 16.8%.

For the molecule `Cc1nn(C)c2c(=O)n(Cc3ccc(C#N)cc3)nnc12`, the cytotoxicity at 70.5 h is -10.1%.

In the case of `Cc1nn(C)c2c(NCCn3cccn3)ncnc12`, the cytotoxicity at 70.5 h was determined as 5.55%.

With `Cc1nc(NC2CCCC2)c2c(n1)c(C)nn2C`, the cytotoxicity at 70.5 h is -14.9%.

`Cc1nc(NC2CC(C)(C)NC(C)(C)C2)c2c(n1)c(C)nn2C`: the cytotoxicity at 70.5 h is -18.4%.

As for `Cc1nc(N2CCN(c3ccccc3)CC2)c2c(n1)c(C)nn2C`, the cytotoxicity at 70.5 h was -2.17%.

As to `Cc1nc(NCCCn2cccn2)c2c(n1)c(C)nn2C`, the cytotoxicity at 70.5 h was -3.99%.

Turning to `CCc1nc(NCc2ccccn2)c2c(n1)c(C)nn2C`, the cytotoxicity at 70.5 h was found to be 30.9%.

As for `Cc1nn(C)c2c(NCCCn3cccn3)nc(C(C)C)nc12`, the cytotoxicity at 70.5 h is 16.2%.

For the molecule `Cc1nn(C)c2c(=O)n(C(C)C)c(NCCc3ccccc3)nc12`, the cytotoxicity at 70.5 h amounted to 24.5%.

For `CCCn1c(N2CCCCC2)nc2c(C)nn(C)c2c1=O`, the cytotoxicity at 70.5 h came out at 15.3%.

`CCOc1ccc(NC(C)=O)cc1S(=O)(=O)Nc1ccon1`: the cytotoxicity at 70.5 h turned out to be 4.6%.

As for `COc1ccc(NC(C)=O)cc1S(=O)(=O)Nc1ccon1`, the cytotoxicity at 70.5 h was -5.66%.

`CC(C)(C)NCc1nn(Cc2ccccc2)nc1-c1ccccc1`: the cytotoxicity at 70.5 h amounted to 5.21%.

Turning to `c1ccc(OCCCNCc2cccs2)nc1`, the cytotoxicity at 70.5 h is 10.1%.

For `Fc1cccc(Cl)c1CNCCCOc1ccccn1`, the cytotoxicity at 70.5 h was -3.63%.

As for `Cc1ccc(CNc2n[nH]c(C)n2)cc1`, the cytotoxicity at 70.5 h was -10.9%.

Consider `Cc1ccc(Cl)cc1N1CCN(CC(=O)NCc2ccco2)CC1`, for which the cytotoxicity at 70.5 h stood at 7.45%.

As for `CC(C)c1cc2c(s1)NC(c1ccccc1)NC2=O` (stereo unspecified), the cytotoxicity at 70.5 h was -12.1%.

Turning to `Cn1c(SCC(N)=O)nnc1-c1csc2c1CCCC2`, the cytotoxicity at 70.5 h was -9.11%.

For the molecule `CCOc1cc(C(=O)n2cc(C)cn2)cc(OCC)c1OCC`, the cytotoxicity at 70.5 h was found to be 1.34%.

For `O=S(=O)(c1ccc(N2CCCCC2)c2nonc12)N1CCCCC1`, the cytotoxicity at 70.5 h is -11.2%.

In the case of `O=S(=O)(c1cc(F)ccc1F)n1cc(Cl)cn1`, the cytotoxicity at 70.5 h is -4.29%.

On to `NC(=O)c1c(-c2ccc(Cl)cc2Cl)csc1NC(=O)CCCC(=O)O`, for which the cytotoxicity at 70.5 h stood at 4.32%.

Consider `CCn1cc(S(=O)(=O)N2CCN(S(=O)(=O)c3ccc(Br)s3)CC2)cn1`, for which the cytotoxicity at 70.5 h is -12%.

Regarding `CCOc1ccc(C(=O)n2cccn2)cc1`, the cytotoxicity at 70.5 h was -4.2%.

In the case of `CC(C)(C)NC(=O)N1CCN(Cc2cccnc2)CC1`, the cytotoxicity at 70.5 h is -3.39%.

As to `Cc1ccc(NC(=O)N2CCN(Cc3ccccn3)CC2)cc1Cl`, the cytotoxicity at 70.5 h worked out at 30.4%.

On to `Cc1c(Cl)cccc1NC(=O)N1CCN(Cc2ccccn2)CC1`, for which the cytotoxicity at 70.5 h is -3.15%.

Regarding `Cn1cc(CNS(=O)(=O)c2cc(F)ccc2F)cn1`, the cytotoxicity at 70.5 h is -6.49%.

In the case of `CCOC(=O)Cn1nnnc1-c1ccccc1`, the cytotoxicity at 70.5 h is -0.715%.

With `CC(C)NC(=O)COc1ccc(-c2nc(C(C)C)no2)cc1`, the cytotoxicity at 70.5 h was -19.4%.

Take `Cc1ccc(NC(C)(C)c2nnnn2-c2ccc(Cl)cc2)c(C)c1`: the cytotoxicity at 70.5 h was determined as 0.988%.

For `CC1(C)CC2(CCO1)NC(=O)c1cc(Br)ccc1-n1nnnc12` (stereo unspecified), the cytotoxicity at 70.5 h is 1.03%.

Turning to `Cc1cccc(-n2nnnc2C(C)(C)Nc2ccccc2C)c1`, the cytotoxicity at 70.5 h stood at 0.855%.

Regarding `COc1ccc(-n2nnnc2C2(NCc3ccco3)CCCCC2)cc1`, the cytotoxicity at 70.5 h was -9.96%.

With `CN(C)S(=O)(=O)N1CCCC(C)(c2ncc(C(N)=O)s2)C1` (stereo unspecified), the cytotoxicity at 70.5 h was determined as 5.78%.

On to `Cc1nn(C)c(C)c1-c1cnc(CC2CCNCC2)cn1`, for which the cytotoxicity at 70.5 h is -4.79%.

Turning to `Cn1cc(CN2CCOC(c3cccc(-c4cccc(F)c4)n3)C2)cn1` (stereo unspecified), the cytotoxicity at 70.5 h is -4.34%.

Consider `Oc1cc(-c2cccs2)nc(C2CCCN(CC3=CCCOC3)C2)n1` (stereo unspecified), for which the cytotoxicity at 70.5 h is -9.88%.

For `O=C(c1cc2c(s1)CCC2)N1CCCC(c2cnccn2)C1` (stereo unspecified), the cytotoxicity at 70.5 h was -17%.

Turning to `COc1ccc2[nH]cc(C(=O)N3C[C@@H](O)[C@H](N4CCOCC4)C3)c2c1`, the cytotoxicity at 70.5 h was -9.96%.

Take `O=C(NCc1ccccc1)C1CN(c2ccccn2)CCO1` (stereo unspecified): the cytotoxicity at 70.5 h is -15.5%.

Take `Cc1cncc(C2CCCN2CCO)n1` (stereo unspecified): the cytotoxicity at 70.5 h was -9.94%.

For the molecule `CNCC(=O)N1CCC(c2cccc(Oc3ccccc3)n2)CC1`, the cytotoxicity at 70.5 h was -7.76%.

Consider `c1cc(C2CCCN2CC2CC2)n[nH]1` (stereo unspecified), for which the cytotoxicity at 70.5 h was -9.13%.

On to `c1ccc(CCN2CCCC2c2ccnc(Nc3ncccn3)n2)cc1` (stereo unspecified), for which the cytotoxicity at 70.5 h was -5.57%.

Regarding `CCn1ccc(-c2cc(NCCCOc3ccccc3C)nc(C)n2)n1`, the cytotoxicity at 70.5 h is -1.9%.

Take `CCC(=O)N1CCCC1c1n[nH]cc1-c1ccccc1F` (stereo unspecified): the cytotoxicity at 70.5 h is -6.39%.

Take `O=C(C1CCC1)N1C[C@@H](c2ccsc2)[C@@H]2CN(C3CCCC3)CC[C@@H]21`: the cytotoxicity at 70.5 h was -3.74%.

Turning to `Cc1cc(N(C)C)nc(C2CCCNC2)n1` (stereo unspecified), the cytotoxicity at 70.5 h is -1.07%.

As to `Cc1cc(N(C)C)nc(C2CCCN2)n1` (stereo unspecified), the cytotoxicity at 70.5 h is -3.78%.
